According to patent US12568969B2, “Pyridine compounds for controlling invertebrate pests” (FMC Corporation, priority 2020, dated 2026):

Tests used:
Type in all cases: in vivo
[1] = test system: diamondback moth (Plutella xylostella (L.)); assay: Test A: control of diamondback moth on mustard plant, spray; conditions: sprayed at 250 ppm; assessed after 6 days
Protocol: (§1) Test compounds were formulated using a solution containing 10% acetone, […] and 300 ppm Activator 909 non-ionic surfactant (Loveland Products, Loveland, Colorado, USA). The formulated compounds were applied in 1 mL of liquid through an atomizer nozzle positioned 1.27 cm (0.5 inches) above the top of each test unit. Test compounds were sprayed at the rates indicated, and each test was replicated three times.
For evaluating control of diamondback moth (Plutella xylostella (L.)) the test unit consisted of a small open container with a 12-14-day-old mustard plant inside. This was pre-infested with ˜50 neonate larvae that were dispensed into the test unit via corn cob grits using an inoculator. The larvae moved onto the test plant after being dispensed into the test unit.
Test compounds were formulated and sprayed at 250 ppm. After spraying of the formulated test compound, each test unit was allowed to dry for 1 hour and then a black, screened cap was placed on top. The test units were held for 6 days in a growth chamber at 25° C. and 70% relative humidity. Plant feeding damage was then visually assessed based on foliage consumed, and larvae were assessed for mortality.

[2] = test system: Western Flower Thrips (Frankliniellla occidentalis (Pergande)); assay: Test G: control of Western Flower Thrips on Soleil bean plant, spray; conditions: sprayed at 250 ppm; 6 days
Protocol: as §1
For evaluating control of the Western Flower Thrips (Frankliniellla occidentalis (Pergande)) through contact and/or systemic means, the test unit consisted of a small open container with a 5-7-day-old Soleil bean plant inside.
Test compounds were formulated and sprayed at 250 ppm. After spraying, the test units were allowed to dry for 1 hour, and then about 60 thrips (adults and nymphs) were added to each unit. A black, screened cap was placed on top, and the test units were held for 6 days at 25° C. and 45-55% relative humidity. Each test unit was then visually assessed for plant damage and insect mortality.

[3] = test system: corn planthopper (Peregrinus maidis (Ashmead)); assay: whole plant or invertebrate; conditions: Peregrinus maidis, 144 h, 6 days; for mortality at 50 ppm: sprayed at 50 ppm; for mortality at 250 ppm: sprayed at 250 ppm; for mortality at 10 ppm: sprayed at 10 ppm
Summary of the method: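 Corn plants 3-4 days old were sprayed at 250, 50 and/or 10 ppm in 10% acetone with 300 ppm non-ionic surfactant, three replicates, contact and/or systemic exposure. After 1 h drying, ~15-20 nymphs (18-to-21-day-old) were added; mortality assessed visually after 6 days at 22-24° C, 50-70% RH.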

[4] = test system: green peach aphid (Myzus persicae (Sulzer)); assay: Test D: control of green peach aphid on radish plant, spray; conditions: Myzus persicae, 144 h, 6 days; for mortality at 50 ppm: sprayed at 50 ppm; for mortality at 250 ppm: sprayed at 250 ppm
Protocol: as §1
For evaluating control of green peach aphid (Myzus persicae (Sulzer)) through contact and/or systemic means, the test unit consisted of a small open container with a 12-15-day-old radish plant inside. This was pre-infested by placing on a leaf of the test plant 30-40 aphids on a piece of leaf excised from a culture plant (cut-leaf method). The aphids moved onto the test plant as the leaf piece desiccated. After pre-infestation, the soil of the test unit was covered with a layer of sand.
[…] After spraying of the formulated test compound, each test unit was allowed to dry for 1 hour and then a black, screened cap was placed on top. The test units were held for 6 days in a growth chamber at 19-21° C. and 50-70% relative humidity. Each test unit was then visually assessed for insect mortality.

[5] = test system: cotton melon aphid (Aphis gossypii (Glover)); assay: whole plant or invertebrate; conditions: Aphis gossypii, 144 h, 6 days; for mortality at 50 ppm: sprayed at 50 ppm; for mortality at 250 ppm: sprayed at 250 ppm
Summary of the method: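 Compounds were formulated in a solution of 10% acetone, […] and 300 ppm Activator 909 non-ionic surfactant and sprayed as 1 mL through an atomizer nozzle 1.27 cm (0.5 inches) above each test unit, with three replicates. Units were pre-infested with 30-40 aphids on leaf pieces via the cut-leaf method, soil covered with sand, then kept 6 days at 19° C. and 70% relative humidity before visual mortality scoring.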

[6] = test system: sweetpotato whitefly (Bemisia tabaci (Gennadius)); assay: Test F: control of sweetpotato whitefly on cotton plant, spray; conditions: 312 h, 13 days; for mortality at 250 ppm: sprayed at 250 ppm; for mortality at 50 ppm: sprayed at 50 ppm
Protocol: as §1
For evaluating control of the sweetpotato whitefly (Bemisia tabaci (Gennadius)) through contact and/or systemic means, the test unit consisted of a small open container with a 12-14-day-old cotton plant inside. Prior to the spray application, both cotyledons were removed from the plant, leaving one true leaf for the assay. Adult whiteflies were allowed to lay eggs on the plant and then were removed from the test unit. Cotton plants infested with at least 15 eggs were submitted to the test for spraying.
Test compounds were formulated and sprayed at 250 and/or 50 ppm. After spraying, the test units were allowed to dry for 1 hour. The cylinders were then removed, and the units were taken to a growth chamber and held for 13 days at 28° C. and 50-70% relative humidity. Each test unit was then visually assessed for insect mortality.

[7] = test system: potato leafhopper (Empoasca fabae (Harris)); assay: Test C: control of potato leafhopper on Soleil bean plant, spray; conditions: Empoasca fabae, 144 h; sprayed at 250 ppm; 6 days
Protocol: as §1
For evaluating control of potato leafhopper (Empoasca fabae (Harris)) through contact and/or systemic means, the test unit consisted of a small open container with a 5-6-day-old Soleil bean plant (primary leaves emerged) inside. White sand was added to the top of the soil, and one of the primary leaves was excised prior to application of the test compound.
[…] After spraying of the formulated test compound, the test units were allowed to dry for 1 hour before they were post-infested with 5 potato leafhoppers (18-to-21-day-old adults). A black, screened cap was placed on the top of the test unit, and the test units were held for 6 days in a growth chamber at 20° C. and 70% relative humidity. Each test unit was then visually assessed for insect mortality.

Structure (SMILES) | control efficacy (40% or less feeding damage and/or 100% mortality) [1] | control efficacy (30% or less plant damage and/or 100% mortality) [2] | mortality at 50 ppm [3] [%] | mortality at 250 ppm [3] [%] | mortality at 50 ppm [4] [%] | mortality at 250 ppm [4] [%] | mortality at 50 ppm [5] [%] | mortality at 250 ppm [5] [%] | mortality at 250 ppm [6] [%] | mortality at 250 ppm [7] [%] | mortality at 50 ppm [6] [%] | mortality at 10 ppm [3] [%]
FC(c1ccc(OC(F)(F)F)cc1)c1c(Br)cncc1-n1nc(Br)c(Br)n1 (racemic) [Compound 29] | very good to excellent levels of control efficacy | very good to excellent levels of control efficacy |  |  |  |  |  |  |  |  |  | 
Fc1cncc(-n2nccn2)c1C(F)c1ccc(SC(F)(F)F)cc1 (stereo not shown) [Compound 3] | very good to excellent levels of control efficacy |  | ≥ 80 | ≥ 80 | ≥ 80 | ≥ 80 | ≥ 80 | ≥ 80 | ≥ 70 |  |  | 
FC(c1ccc(OC(F)(F)F)cc1)c1ccncc1-n1nccn1 (stereo not shown) [Compound 9] |  |  | ≥ 80 | ≥ 80 |  |  | ≥ 80 | ≥ 80 |  | ≥ 80 |  | 
FC(c1ccc(OC(F)(F)F)cc1)c1ccncc1-n1cccn1 (stereo not shown) [Compound 11] |  |  | ≥ 80 | ≥ 80 |  | ≥ 80 | ≥ 80 | ≥ 80 |  | ≥ 80 |  | 
FC(c1ccc(OC(F)(F)F)cc1)c1c(Cl)cncc1-n1nccn1 (stereo not shown) [Compound 14] |  |  | ≥ 80 | ≥ 80 | ≥ 80 | ≥ 80 | ≥ 80 | ≥ 80 | ≥ 70 | ≥ 80 | ≥ 70 | 
Fc1cncc(-n2cccn2)c1C(F)c1ccc(C(F)(F)F)cc1 (stereo not shown) [Compound 21] | very good to excellent levels of control efficacy |  | ≥ 80 | ≥ 80 | ≥ 80 | ≥ 80 | ≥ 80 | ≥ 80 |  | ≥ 80 |  | 
Fc1cncc(-c2nccs2)c1C(F)c1ccc(OC(F)(F)F)cc1 (stereo not shown) [Compound 36] | very good to excellent levels of control efficacy | very good to excellent levels of control efficacy |  |  |  | ≥ 80 |  |  | ≥ 70 |  |  | 
COC(c1ccc(OC(F)(F)F)cc1)c1c(F)cncc1-n1cccn1 (stereo not shown) [Compound 37] |  |  | ≥ 80 | ≥ 80 |  | ≥ 80 | ≥ 80 | ≥ 80 | ≥ 70 | ≥ 80 |  | 
Fc1cncc(-c2ccno2)c1C(F)c1ccc(OC(F)(F)F)cc1 (stereo not shown) [Compound 41] |  | very good to excellent levels of control efficacy | ≥ 80 |  |  |  |  | ≥ 80 |  |  |  | ≥ 80
FC(c1ccc(OC(F)(F)F)cc1)c1c(Cl)cncc1-c1nccs1 (stereo not shown) [Compound 50] | very good to excellent levels of control efficacy | very good to excellent levels of control efficacy | ≥ 80 |  |  |  | ≥ 80 | ≥ 80 |  |  |  | ≥ 80
FC(c1ccc(SC(F)(F)F)cc1)c1ccncc1-n1nccn1 (stereo not shown) [Compound 69] |  |  | ≥ 80 | ≥ 80 | ≥ 80 | ≥ 80 | ≥ 80 | ≥ 80 | ≥ 70 | ≥ 80 | ≥ 70 | ≥ 80
Fc1cncc(-c2ncco2)c1C(F)c1ccc(SC(F)(F)F)cc1 (stereo not shown) [Compound 78] | very good to excellent levels of control efficacy |  | ≥ 80 | ≥ 80 | ≥ 80 | ≥ 80 | ≥ 80 | ≥ 80 | ≥ 70 |  | ≥ 70 | ≥ 80
FC(c1ccc(SC(F)(F)F)cc1)c1c(Cl)cncc1-n1nccn1 (stereo not shown) [Compound 89] | very good to excellent levels of control efficacy |  | ≥ 80 | ≥ 80 | ≥ 80 | ≥ 80 | ≥ 80 | ≥ 80 | ≥ 70 |  | ≥ 70 | ≥ 80
Fc1cncc(-n2nccn2)c1C(F)c1ccc(Br)cc1 (stereo not shown) [Compound 92] | very good to excellent levels of control efficacy |  | ≥ 80 | ≥ 80 |  |  | ≥ 80 | ≥ 80 | ≥ 70 |  | ≥ 70 | ≥ 80
COC(c1ccc(SC(F)F)cc1)c1c(F)cncc1-n1nccn1 (stereo not shown) [Compound 118] | very good to excellent levels of control efficacy |  |  |  | ≥ 80 | ≥ 80 | ≥ 80 | ≥ 80 | ≥ 70 |  | ≥ 70 | 
COC(c1ccc(SC(F)(F)F)cc1)c1c(F)cncc1-n1nccn1 (stereo not shown) [Compound 123] | very good to excellent levels of control efficacy |  | ≥ 80 | ≥ 80 | ≥ 80 | ≥ 80 | ≥ 80 | ≥ 80 | ≥ 70 |  | ≥ 70 | ≥ 80
CO[C@H](c1ccc(OC(F)(F)F)cc1)c1c(F)cncc1-n1nccn1 [Compound 125, 3-fluoro-4-[(R)-methoxy-[4-(trifluoromethoxy)phenyl]methyl]-5-(triazol-2 yl)pyridine] | very good to excellent levels of control efficacy |  | ≥ 80 | ≥ 80 | ≥ 80 | ≥ 80 | ≥ 80 | ≥ 80 | ≥ 70 |  | ≥ 70 | ≥ 80
